Laboratory results published in patent publication US9029325B2, “Amylin analogues and pharmaceutical compositions thereof” (Novo Nordisk A/S, priority 2011, dated 2015).
Starred links: 1 amine or outer side, 2 acyl side, 3 side chain; linkers in the order of their positions; H or OH if unused. Positions of bridges follow the written chain, without caps; N, C: chain ends. Residues, ends and D or L forms follow the SMILES beside them. Groups on a side chain read outwards from the residue. *: point of attachment. C20 diacid = O=C(O)CCCCCCCCCCCCCCCCCCC(=O)*; C18 diacid = O=C(O)CCCCCCCCCCCCCCCCC(=O)*; γGlu = O=C(O)[C@H](CCC(=O)[*:2])N[*:1]; AEEA = NCCOCCOCC(=O)O

Experiment: Assay (I) efficacy testing on appetite (food intake), ad libitum fed rat model
Assay type: in vivo, Sprague Dawley (SD) rats
From the text: Sprague Dawley (SD) rats from Taconic Europe, Denmark are used for the experiments. The rats have a body weight 200-250 g at the start of experiment. The rats arrive at least 10-14 days before start of experiment to allow acclimatization to experimental settings. During this period the animals are handled at least 2 times. After arrival rats are housed individually for one week in a reversed light/dark phase (meaning that lights are off during daytime and on during nighttime) […]. Since rats are normally active and eat their major part of their daily food intake during the dark period, rats are dosed in the morning right before lights are turned off. This set-up results in the lowest data variation and highst test sensitivity. The experiment is conducted in the rats' home cages and rats have free access to food and water througout the acclimatization period and the experiment period. Each dose of derivative is tested in a group of 5-8 rats. A vehicle group of 6-8 rats is included in each set of testing. Rats are dosed once according to body weight with a 0.01-3 mg/kg solution administered intraperitoneally (ip), orally (po) or subcutaneously (sc). The time of dosing is recorded for each group. After dosing, the rats are returned to their home cages, where they then have access to food and water. The food consumption is recorded individually continuously by on-line registration or manually every hour for 7 hours, and then after 24 h and sometimes 48 h. At the end of the experimental session, the animals are euthanised.
The individual data are recorded in Microsoft excel sheets. Outliers are excluded after applying the Grubbs statistical evaluation test for outliers, and the result is presented graphically using the GraphPad Prism program.

## CC[C@H](C)[C@H](NC(=O)[C@@H]1CCCN1C(=O)CNC(=O)[C@H](Cc1ccccc1)NC(=O)[C@H](CC(N)=O)NC(=O)[C@H](CC(N)=O)NC(=O)[C@H](CO)NC(=O)[C@H](CO)NC(=O)[C@H](CCCNC(=N)N)NC(=O)[C@H](Cc1c[nH]cn1)NC(=O)[C@H](CC(C)C)NC(=O)[C@H](Cc1ccccc1)NC(=O)[C@H](CCC(=O)O)NC(=O)[C@H](C)NC(=O)[C@H](CC(C)C)NC(=O)[C@H](CCCNC(=N)N)NC(=O)[C@H](CCC(N)=O)NC(=O)[C@@H](NC(=O)[C@H](C)NC(=O)[C@@H]1CSSC[C@H](NC(=O)[C@H](Cc2c[nH]cn2)NC(=O)CC[C@H](NC(=O)CCCCCCCCCCCCCCCCCCC(=O)O)C(=O)O)C(=O)N[C@@H](CC(N)=O)C(=O)N[C@@H]([C@@H](C)O)C(=O)N[C@@H](C)C(=O)N[C@@H]([C@@H](C)O)C(=O)N1)[C@@H](C)O)C(=O)N[C@@H](CC(C)C)C(=O)N1CCC[C@H]1C(=O)N1CCC[C@H]1C(=O)N[C@H](C(=O)N[C@@H](CC(N)=O)C(=O)N[C@H](C(=O)NCC(=O)N[C@@H](CO)C(=O)N[C@@H](CC(N)=O)C(=O)N[C@H](C(=O)N[C@@H](Cc1ccc(O)cc1)C(N)=O)[C@@H](C)O)C(C)C)[C@@H](C)O [compound 1] ({C20 diacid-γGlu}-HCNTATCATQRLAEFLHRSSNNFGPILPPTNVGSNTY-NH2; disulfide 2-7)
0-24 h
  Food intake reduction 0-24 h 3 nmol/kg (%): 50%
24-48 h
  Food intake reduction 24-48 h 3 nmol/kg (%): 45%
30 nmol/kg, 0-24 h
  Food intake reduction 0-24 h 30 nmol/kg (%): 93%
30 nmol/kg, 24-48 h
  Food intake reduction 24-48 h 30 nmol/kg (%): 92%

## CC[C@H](C)[C@H](NC(=O)[C@H](CCCCNC(=O)COCCOCCNC(=O)COCCOCCNC(=O)CC[C@H](NC(=O)CCCCCCCCCCCCCCCCC(=O)O)C(=O)O)NC(=O)CNC(=O)[C@H](Cc1ccccc1)NC(=O)[C@H](CC(N)=O)NC(=O)[C@H](CC(N)=O)NC(=O)[C@H](CO)NC(=O)[C@H](CO)NC(=O)[C@H](Cc1c[nH]cn1)NC(=O)[C@H](Cc1c[nH]cn1)NC(=O)[C@H](CC(C)C)NC(=O)[C@H](Cc1ccccc1)NC(=O)[C@H](CCC(=O)O)NC(=O)[C@H](C)NC(=O)[C@H](CC(C)C)NC(=O)[C@H](CCCNC(=N)N)NC(=O)[C@H](CCC(N)=O)NC(=O)[C@@H](NC(=O)[C@H](C)NC(=O)[C@@H]1CSSC[C@H](NC(=O)[C@@H](N)CCCCN)C(=O)N[C@@H](CC(N)=O)C(=O)N[C@@H]([C@@H](C)O)C(=O)N[C@@H](C)C(=O)N[C@@H]([C@@H](C)O)C(=O)N1)[C@@H](C)O)C(=O)N[C@@H](CC(C)C)C(=O)N1CCC[C@H]1C(=O)N1CCC[C@H]1C(=O)N[C@H](C(=O)N[C@@H](CC(N)=O)C(=O)N[C@H](C(=O)NCC(=O)N[C@@H](CO)C(=O)N[C@@H](CC(N)=O)C(=O)N[C@H](C(=O)N[C@@H](Cc1ccc(O)cc1)C(N)=O)[C@@H](C)O)C(C)C)[C@@H](C)O [compound 73] (H-KCNTATCATQRLAEFLHHSSNNFGK([AEEA-AEEA-γGlu-C18 diacid])ILPPTNVGSNTY-NH2; disulfide 2-7 (inferred); N-terminus and C-terminus assumed)
0-24 h
  Food intake reduction 0-24 h 3 nmol/kg (%): 29%
24-48 h
  Food intake reduction 24-48 h 3 nmol/kg (%): 2%

## CC[C@H](C)[C@H](NC(=O)[C@@H]1CCCN1C(=O)CNC(=O)[C@H](Cc1ccccc1)NC(=O)[C@H](CC(N)=O)NC(=O)[C@H](CCC(N)=O)NC(=O)[C@H](CO)NC(=O)[C@H](CO)NC(=O)[C@H](Cc1c[nH]cn1)NC(=O)[C@H](Cc1c[nH]cn1)NC(=O)[C@H](CC(C)C)NC(=O)[C@H](Cc1ccccc1)NC(=O)[C@H](CCC(=O)O)NC(=O)[C@H](C)NC(=O)[C@H](CC(C)C)NC(=O)[C@H](CCCNC(=N)N)NC(=O)[C@H](CCC(N)=O)NC(=O)[C@@H](NC(=O)[C@H](C)NC(=O)[C@@H]1CSSC[C@H](NC(=O)[C@H](CCCCN)NC(=O)CC[C@H](NC(=O)CCCCCCCCCCCCCCCCCCC(=O)O)C(=O)O)C(=O)N[C@@H](CC(N)=O)C(=O)N[C@@H]([C@@H](C)O)C(=O)N[C@@H](C)C(=O)N[C@@H]([C@@H](C)O)C(=O)N1)[C@@H](C)O)C(=O)N[C@@H](CC(C)C)C(=O)N1CCC[C@H]1C(=O)N1CCC[C@H]1C(=O)N[C@H](C(=O)N[C@@H](CC(N)=O)C(=O)N[C@H](C(=O)NCC(=O)N[C@@H](CO)C(=O)N[C@@H](Cc1c[nH]cn1)C(=O)N[C@H](C(=O)N[C@@H](Cc1ccc(O)cc1)C(N)=O)[C@@H](C)O)C(C)C)[C@@H](C)O [compound 117] ({C20 diacid-γGlu}-KCNTATCATQRLAEFLHHSSQNFGPILPPTNVGSHTY-NH2; disulfide 2-7 (inferred); C-terminus assumed)
0-24 h
  Food intake reduction 0-24 h 3 nmol/kg (%): 50%
24-48 h
  Food intake reduction 24-48 h 3 nmol/kg (%): 35%

## CC[C@H](C)[C@H](NC(=O)[C@@H]1CCCN1C(=O)CNC(=O)[C@H](Cc1ccccc1)NC(=O)[C@H](CC(N)=O)NC(=O)[C@H](CC(N)=O)NC(=O)[C@H](CO)NC(=O)[C@H](CO)NC(=O)[C@H](Cc1c[nH]cn1)NC(=O)[C@H](Cc1c[nH]cn1)NC(=O)[C@H](CC(C)C)NC(=O)[C@H](Cc1ccccc1)NC(=O)[C@H](CCC(=O)O)NC(=O)[C@H](C)NC(=O)[C@H](CC(C)C)NC(=O)[C@H](CCCNC(=N)N)NC(=O)[C@H](CCC(N)=O)NC(=O)[C@@H](NC(=O)[C@H](C)NC(=O)[C@@H]1CSSC[C@H](NC(=O)[C@H](Cc2c[nH]cn2)NC(=O)CC[C@H](NC(=O)CCCCCCCCCCCCCCCCCCC(=O)O)C(=O)O)C(=O)N[C@@H](CC(N)=O)C(=O)N[C@@H]([C@@H](C)O)C(=O)N[C@@H](C)C(=O)N[C@@H]([C@@H](C)O)C(=O)N1)[C@@H](C)O)C(=O)N[C@@H](CC(C)C)C(=O)N1CCC[C@H]1C(=O)N1CCC[C@H]1C(=O)N[C@H](C(=O)N[C@@H](CC(N)=O)C(=O)N[C@H](C(=O)NCC(=O)N[C@@H](CO)C(=O)N[C@@H](CC(N)=O)C(=O)N[C@H](C(=O)N[C@@H](Cc1ccc(O)cc1)C(N)=O)[C@@H](C)O)C(C)C)[C@@H](C)O [compound 18] ({C20 diacid-γGlu}-HCNTATCATQRLAEFLHHSSNNFGPILPPTNVGSNTY-NH2; disulfide 2-7)
0-24 h
  Food intake reduction 0-24 h 3 nmol/kg (%): 40%
24-48 h
  Food intake reduction 24-48 h 3 nmol/kg (%): 32%

## CC[C@H](C)[C@H](NC(=O)[C@@H]1CCCN1C(=O)CNC(=O)[C@H](Cc1ccccc1)NC(=O)[C@H](CC(N)=O)NC(=O)[C@H](CC(N)=O)NC(=O)[C@H](CO)NC(=O)[C@H](CO)NC(=O)[C@H](Cc1c[nH]cn1)NC(=O)[C@H](Cc1c[nH]cn1)NC(=O)[C@H](CC(C)C)NC(=O)[C@H](Cc1ccccc1)NC(=O)[C@H](CCC(=O)O)NC(=O)[C@H](C)NC(=O)[C@H](CC(C)C)NC(=O)[C@H](CCCNC(=N)N)NC(=O)[C@H](CCC(N)=O)NC(=O)[C@@H](NC(=O)[C@H](C)NC(=O)[C@@H]1CSSC[C@H](NC(=O)[C@H](Cc2c[nH]cn2)NC(=O)[C@H](Cc2c[nH]cn2)NC(=O)[C@H](Cc2c[nH]cn2)NC(=O)CC[C@H](NC(=O)CCCCCCCCCCCCCCCCCCC(=O)O)C(=O)O)C(=O)N[C@@H](CCCNC(=N)N)C(=O)N[C@@H]([C@@H](C)O)C(=O)N[C@@H](C)C(=O)N[C@@H]([C@@H](C)O)C(=O)N1)[C@@H](C)O)C(=O)N[C@@H](CC(C)C)C(=O)N1CCC[C@H]1C(=O)N1CCC[C@H]1C(=O)N[C@H](C(=O)N[C@@H](CC(N)=O)C(=O)N[C@H](C(=O)NCC(=O)N[C@@H](CO)C(=O)N[C@@H](CC(N)=O)C(=O)N[C@H](C(=O)N[C@@H](Cc1ccc(O)cc1)C(N)=O)[C@@H](C)O)C(C)C)[C@@H](C)O [compound 22] ({C20 diacid-γGlu}-HHHCRTATCATQRLAEFLHHSSNNFGPILPPTNVGSNTY-NH2; disulfide 4-9 (inferred); C-terminus assumed)
0-24 h
  Food intake reduction 0-24 h 3 nmol/kg (%): 26%
24-48 h
  Food intake reduction 24-48 h 3 nmol/kg (%): 5%

## CC[C@H](C)[C@H](NC(=O)[C@H](CCC(=O)O)NC(=O)CNC(=O)[C@H](Cc1ccccc1)NC(=O)[C@H](CC(N)=O)NC(=O)[C@H](CC(N)=O)NC(=O)[C@H](CO)NC(=O)[C@H](CO)NC(=O)[C@H](CCCNC(=N)N)NC(=O)[C@H](Cc1c[nH]cn1)NC(=O)[C@H](CC(C)C)NC(=O)[C@H](Cc1ccccc1)NC(=O)[C@H](CCC(=O)O)NC(=O)[C@H](C)NC(=O)[C@H](CC(C)C)NC(=O)[C@H](CCCNC(=N)N)NC(=O)[C@H](CCC(N)=O)NC(=O)[C@@H](NC(=O)[C@H](C)NC(=O)[C@@H]1CSSC[C@H](NC(=O)[C@H](Cc2c[nH]cn2)NC(=O)CC[C@H](NC(=O)CCCCCCCCCCCCCCCCCCC(=O)O)C(=O)O)C(=O)N[C@@H](CC(N)=O)C(=O)N[C@@H]([C@@H](C)O)C(=O)N[C@@H](C)C(=O)N[C@@H]([C@@H](C)O)C(=O)N1)[C@@H](C)O)C(=O)N[C@@H](CC(C)C)C(=O)N[C@@H](CO)C(=O)N[C@@H](CCCNC(=N)N)C(=O)N[C@H](C(=O)N[C@@H](CC(N)=O)C(=O)N[C@H](C(=O)NCC(=O)N[C@@H](CO)C(=O)N[C@@H](CC(N)=O)C(=O)N[C@H](C(=O)N[C@@H](Cc1ccc(O)cc1)C(N)=O)[C@@H](C)O)C(C)C)[C@@H](C)O [compound 7] ({C20 diacid-γGlu}-HCNTATCATQRLAEFLHRSSNNFGEILSRTNVGSNTY-NH2; disulfide 2-7 (inferred); C-terminus assumed)
0-24 h
  Food intake reduction 0-24 h 3 nmol/kg (%): 53%
24-48 h
  Food intake reduction 24-48 h 3 nmol/kg (%): 46%
